Active and inactive are the calls of the source. The rule behind the calls is not given here.
Legend:
[1] = system: Mus musculus; assay: (§1) Inhibition of chlorpyrifos-induced testicular damage in albino mouse assessed as appearance of spermatozoa tails in lumina at 20 mg/kg, qd administered via oral gavage followed by chlorpyrifos challenge at 30 mins post dose by haematoxylin and eosin staining-based light microscopic analysis; assay type: functional, organism-based
[2] = molecular target: Epidermal growth factor receptor (Homo sapiens, UniProt P00533); assay: Inhibition of His6-tagged EGFR (unknown origin) cytoplasmic domain expressed in baculovirus infected Sf9 insect cells after 10 mins followed by addition of ATP-MgCl2 and measured after 1 hr by time-resolved fluorometric analysis
[3] = system: Mus musculus; assay: Inhibition of chlorpyrifos-induced iNOS epression in albino mouse testes at 20 mg/kg, qd administered via oral gavage followed by chlorpyrifos challenge at 30 mins post dose by immunohistochemical analysis; assay type: functional, organism-based
[4] = Inhibition of ROS generation in human PMN at 12.5 ug/ml after 50 mins by luminol-based chemiluminescence assay relative to control; assay type: functional
[5] = species: Homo sapiens; assay: (§2) Inhibition of ROS generation in human PMN after 50 mins by luminol-based chemiluminescence assay; assay type: functional
[6] = as §2; assay type: functional
[7] = system: A549; assay: Antiproliferative activity human A549 cells after 48 hrs by propidium iodide staining-based fluorescence assay; assay type: functional, cell-based; conditions: A549, 48 h
[8] = system: Mus musculus; assay: Inhibition of chlorpyrifos-induced caspase3 epression in albino mouse testes at 20 mg/kg, qd administered via oral gavage followed by chlorpyrifos challenge at 30 mins post dose by immunohistochemical analysis; assay type: functional, organism-based
[9] = system: MIA PaCa-2; assay: Antiproliferative activity human MIAPaCa2 cells after 48 hrs by propidium iodide staining-based fluorescence assay; assay type: functional, cell-based; conditions: MIA PaCa-2, 48 h
[10] = system: Mus musculus; assay: as §1, with “well-organized spermatogenic layers at different stages of spermatogenesis” for “spermatozoa tails in lumina”; assay type: functional, organism-based
[11] = Inhibition of ROS generation in human PMN at 0.78 ug/ml after 50 mins by luminol-based chemiluminescence assay relative to control; assay type: functional
[12] = Inhibition of ROS generation in human PMN at 1.56 ug/ml after 50 mins by luminol-based chemiluminescence assay relative to control; assay type: functional
[13] = system: Mus musculus; assay: Inhibition of chlorpyrifos-induced fibrosis in albino mouse testis assessed as thin fibrous capsule at 20 mg/kg, qd administered via oral gavage followed by chlorpyrifos challenge at 30 mins post dose by masson's trichrome staining-based light microscopic analysis; assay type: functional, organism-based
[14] = molecular target: Tubulin (Homo sapiens) (UniProt P68371+Q9H4B7+P0DPH7+P68366+Q13509+Q71U36+P04350+Q3ZCM7+P07437+P68363+Q9BQE3+Q6PEY2+Q13885+Q9BVA1+Q9BUF5); assay: Inhibition of tubulin (unknown origin) polymerization assessed as tubulin assembly rate by fluorescence assay; assay type: protein-complex assay
[15] = system: PC-3; assay: Antiproliferative activity human PC3 cells after 48 hrs by propidium iodide staining-based fluorescence assay; assay type: functional, cell-based; conditions: PC-3, 48 h
[16] = Antioxidant activity assessed as DPPH radical scavenging activity at 100 uM after 30 mins dark incubation; assay type: functional
[17] = system: Mus musculus; assay: (§3) Inhibition of chlorpyrifos-induced testicular damage in albino mouse assessed as appearance of normal sertoli cells at 20 mg/kg, qd administered via oral gavage followed by chlorpyrifos challenge at 30 mins post dose by haematoxylin and eosin staining-based light microscopic analysis; assay type: functional, organism-based
[18] = system: Mus musculus; assay: Inhibition of chlorpyrifos-induced testicular damage in albino mouse assessed as increase in spermatogenic cell layers at 20 mg/kg, qd administered via oral gavage followed by chlorpyrifos challenge at 30 mins post dose by haematoxylin and eosin staining-based light microscopic analysis; assay type: functional, organism-based
[19] = system: MCF7; assay: Antiproliferative activity human MCF7 cells after 48 hrs by propidium iodide staining-based fluorescence assay; assay type: functional, cell-based; conditions: MCF7, 48 h
[20] = Antioxidant activity assessed as DPPH radical scavenging activity at 50 uM after 30 mins dark incubation; assay type: functional
[21] = system: HT-29; assay: Antiproliferative activity human HT-29 cells after 48 hrs by propidium iodide staining-based fluorescence assay; assay type: functional, cell-based; conditions: HT-29, 48 h
[22] = system: Mus musculus; assay: as §3, with “absence” for “appearance”, “crowdedness of interstitial” for “normal sertoli”, “cells with relatively low exudate” for “cells”; assay type: functional, organism-based
[23] = molecular target: Serine/threonine-protein kinase B-raf (Mus musculus, UniProt P28028, V600E); assay: Inhibition of mouse full-length GST-tagged BRAF V600E mutant using recombinant human full length N-terminal His-tagged MEK1 as substrate preincubated for 60 mins followed by substrate addition and measured after 25 mins by ELISA
[24] = Cytotoxicity against human MCF10A cells assessed as cell viability at 50 uM after 96 hrs by MTT assay relative to control; assay type: cell-based, MCF-10A; conditions: read-out: Activity
[25] = Inhibition of ROS generation in human PMN at 6.25 ug/ml after 50 mins by luminol-based chemiluminescence assay relative to control; assay type: functional
[26] = Antioxidant activity assessed as DPPH radical scavenging activity at 10 uM after 30 mins dark incubation; assay type: functional
[27] = system: Mus musculus; assay: Inhibition of chlorpyrifos-induced fibrosis in albino mouse testis assessed as decrease in collagen in interstitium at 20 mg/kg, qd administered via oral gavage followed by chlorpyrifos challenge at 30 mins post dose by masson's trichrome staining-based light microscopic analysis; assay type: functional, organism-based
[28] = Inhibition of ROS generation in human PMN at 3.13 ug/ml after 50 mins by luminol-based chemiluminescence assay relative to control; assay type: functional
[29] = species: Mus musculus; conditions: 20 mg/kg
Description: Inhibition of chlorpyrifos-induced testicular damage in albino mouse assessed as appearance of vesicular nuclei in spermatogenic cells at 20 mg/kg, qd administered via oral gavage followed by chlorpyrifos challenge at 30 mins post dose by haematoxylin and eosin staining-based light microscopic analysis

[30] = species: Mus musculus; conditions: 20 mg/kg; remark: listed apart in the source
Description: Inhibition of chlorpyrifos-induced testicular damage in albino mouse assessed as appearance of spermatozoa tails in narrow lumina at 20 mg/kg, qd administered via oral gavage followed by chlorpyrifos challenge at 30 mins post dose by haematoxylin and eosin staining-based light microscopic analysis

[31] = species: Mus musculus; conditions: 20 mg/kg; remark: listed apart in the source
Description: Inhibition of chlorpyrifos-induced testicular damage in albino mouse assessed as absence of sloughed cells at 20 mg/kg, qd administered via oral gavage followed by chlorpyrifos challenge at 30 mins post dose by haematoxylin and eosin staining-based light microscopic analysis

[32] = species: Mus musculus; conditions: 20 mg/kg; remark: listed apart in the source
Description: Inhibition of chlorpyrifos-induced testicular damage in albino mouse assessed as appearance of separated semniferous tubules by narrow interstitium without exudate at 20 mg/kg, qd administered via oral gavage followed by chlorpyrifos challenge at 30 mins post dose by haematoxylin and eosin staining-based light microscopic analysis

[33] = species: Mus musculus; conditions: 20 mg/kg; remark: listed apart in the source
Description: Inhibition of chlorpyrifos-induced testicular damage in albino mouse assessed as appearance of cellular vaculations in germinal epithelium at 20 mg/kg, qd administered via oral gavage followed by chlorpyrifos challenge at 30 mins post dose by haematoxylin and eosin staining-based light microscopic analysis

[34] = system: MDA-MB-435; assay: Growth inhibition of human MDA-MB-435 cells after 48 hrs by SRB assay; assay type: functional; conditions: MDA-MB-435, 48 h
[35] = system: MCF7; assay: Growth inhibition of human MCF7 cells after 48 hrs by SRB assay; assay type: functional; conditions: MCF7, 48 h

Serine/threonine-protein kinase B-raf, sequence (P28028 whole entry, looked up, stated change not applied): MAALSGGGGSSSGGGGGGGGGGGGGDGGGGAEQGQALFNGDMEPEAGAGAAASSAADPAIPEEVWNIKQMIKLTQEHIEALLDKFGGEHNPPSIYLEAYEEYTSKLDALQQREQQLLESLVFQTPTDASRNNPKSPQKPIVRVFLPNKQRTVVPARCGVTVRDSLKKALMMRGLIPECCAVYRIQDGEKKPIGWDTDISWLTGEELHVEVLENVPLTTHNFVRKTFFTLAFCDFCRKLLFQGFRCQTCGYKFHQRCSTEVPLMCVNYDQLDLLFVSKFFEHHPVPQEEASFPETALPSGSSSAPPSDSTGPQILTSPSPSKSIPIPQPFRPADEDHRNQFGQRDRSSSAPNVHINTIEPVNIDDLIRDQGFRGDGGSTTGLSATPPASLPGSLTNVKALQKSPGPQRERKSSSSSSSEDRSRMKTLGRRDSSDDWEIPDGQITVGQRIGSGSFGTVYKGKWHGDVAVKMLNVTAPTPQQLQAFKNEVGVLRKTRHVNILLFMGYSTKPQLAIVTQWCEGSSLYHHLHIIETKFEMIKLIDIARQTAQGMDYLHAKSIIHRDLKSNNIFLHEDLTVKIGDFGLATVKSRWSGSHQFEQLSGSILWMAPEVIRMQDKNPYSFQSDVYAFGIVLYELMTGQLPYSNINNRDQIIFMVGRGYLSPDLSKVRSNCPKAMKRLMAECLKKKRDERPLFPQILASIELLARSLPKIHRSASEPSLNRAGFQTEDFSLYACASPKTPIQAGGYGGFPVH
Epidermal growth factor receptor, sequence (P00533 whole entry, the tested form may be a part): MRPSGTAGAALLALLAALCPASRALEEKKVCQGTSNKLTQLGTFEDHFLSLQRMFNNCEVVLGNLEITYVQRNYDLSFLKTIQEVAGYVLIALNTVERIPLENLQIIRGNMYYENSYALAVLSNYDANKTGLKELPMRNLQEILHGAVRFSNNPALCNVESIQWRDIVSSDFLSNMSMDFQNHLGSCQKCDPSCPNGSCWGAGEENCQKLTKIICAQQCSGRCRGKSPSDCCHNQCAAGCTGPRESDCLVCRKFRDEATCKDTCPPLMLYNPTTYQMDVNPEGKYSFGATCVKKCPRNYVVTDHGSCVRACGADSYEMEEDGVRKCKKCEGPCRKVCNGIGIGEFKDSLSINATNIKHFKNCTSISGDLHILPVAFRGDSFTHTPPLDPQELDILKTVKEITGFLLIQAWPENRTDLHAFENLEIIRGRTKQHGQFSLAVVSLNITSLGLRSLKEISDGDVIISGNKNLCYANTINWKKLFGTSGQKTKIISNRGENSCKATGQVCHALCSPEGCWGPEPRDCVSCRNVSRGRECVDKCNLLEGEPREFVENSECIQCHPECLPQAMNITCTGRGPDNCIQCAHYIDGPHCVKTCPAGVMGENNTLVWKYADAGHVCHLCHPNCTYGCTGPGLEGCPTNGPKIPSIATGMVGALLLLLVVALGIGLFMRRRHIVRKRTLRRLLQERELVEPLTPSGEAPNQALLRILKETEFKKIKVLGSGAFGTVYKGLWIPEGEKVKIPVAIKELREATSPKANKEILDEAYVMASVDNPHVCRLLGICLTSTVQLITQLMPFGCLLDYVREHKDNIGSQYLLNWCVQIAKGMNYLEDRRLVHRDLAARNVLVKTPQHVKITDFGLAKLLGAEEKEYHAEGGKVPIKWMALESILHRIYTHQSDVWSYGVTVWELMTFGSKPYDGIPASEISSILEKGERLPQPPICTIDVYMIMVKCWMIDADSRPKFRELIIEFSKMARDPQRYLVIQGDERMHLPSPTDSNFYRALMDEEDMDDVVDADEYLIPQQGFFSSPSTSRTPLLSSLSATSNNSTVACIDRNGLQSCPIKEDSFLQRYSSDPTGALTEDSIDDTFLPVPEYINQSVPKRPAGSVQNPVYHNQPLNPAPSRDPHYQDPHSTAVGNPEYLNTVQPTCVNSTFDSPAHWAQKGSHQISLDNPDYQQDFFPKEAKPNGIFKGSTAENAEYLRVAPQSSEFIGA

Row | Compound | inhibition [3] | inhibition at 12.5 µg/mL [4] | inhibition [5] | IC50 [6] | IC50 [7] | inhibition [8] | IC50 [9] | inhibition at 0.78 µg/mL [11] | inhibition at 1.56 µg/mL [12] | inhibition [13] | Activity [14] | IC50 [15] | Activity [16] | inhibition [18] | IC50 [19] | Activity [20] | IC50 [21] | IC50 [23] | viability at 96 h, 50 µM [24] | inhibition at 6.25 µg/mL [25] | further results
1 | O=c1[nH]c(Cc2ccccc2)cn2c1cc1cc(Cl)ccc12 | Active | 81% | Dose-dependent effect | 3360 nM | 1200 nM | Active | 1800 nM | 47% | 55% | Active | 930 a.u. | 1300 nM | 91.4% | Active | 900 nM | 79.6% | 900 nM | 1000 nM | 89% | 72% | inhibition [1]: Active; IC50 [2]: 2400 nM; inhibition [10]: Active; inhibition [17]: Active; inhibition [22]: Active; Activity [26]: 69.4%; inhibition [27]: Active; inhibition at 3.13 µg/mL [28]: 64%
2 | Cc1c2cc(Cl)ccc2n2cc(Cc3ccccc3)[nH]c(=O)c12 | Active | 91% | Dose-dependent effect | 1480 nM | 800 nM | Active | 300 nM | 55% | 60% | Active | 650 a.u. | 900 nM | 97.7% | Active | 100 nM | 85.4% | 600 nM | 100 nM | 91% | 85% | inhibition [29]: Active; inhibition [30]: Active; inhibition [31]: Active; inhibition [32]: Active; Activity [26]: 72.3%; inhibition [27]: Active; inhibition [33]: Active; inhibition at 3.13 µg/mL [28]: 72%
3 | Cc1ccc(S(=O)(=O)N2c3ccccc3CC2c2nc(Br)cnc2N)cc1 (stereo not drawn) | – | – | – | – | – | – | – | – | – | – | – | – | – | – | – | – | – | – | – | – | GI50 [34]: 290 nM; GI50 [35]: 820 nM

From ChEMBL document CHEMBL4196002, “Design, synthesis, mechanistic and histopathological studies of small-molecules of novel indole-2-carboxamides and pyrazino[1,2-a]indol-1(2H)-ones as potential anticancer agents effecting the reactive oxygen species production” (Eur J Med Chem, 2018)
